Assay results taken from article PMC3479139, “Diverse Small Molecule Inhibitors of Human Apurinic/Apyrimidinic Endonuclease APE1 Identified from a Screen of a Large Public Collection” (PLoS ONE, 2012).

Assays:
APE1 [1] = biological target: T1, APE1 (Homo sapiens, UniProt P27695); test: Fluorogenic kinetic qHTS APE1 incision assay (primary screen and retest of cherrypicked samples); format: biochemical;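 further: purified APE1 cleaving a fluorophore/dark-quencher labelled 17-mer duplex DNA bearing a tetrahydrofuran AP site, fluorescence rise followed kinetically over the first 2 min, inhibition normalized to controls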
T1 construct: made in house
T1 sequence (P27695 whole entry): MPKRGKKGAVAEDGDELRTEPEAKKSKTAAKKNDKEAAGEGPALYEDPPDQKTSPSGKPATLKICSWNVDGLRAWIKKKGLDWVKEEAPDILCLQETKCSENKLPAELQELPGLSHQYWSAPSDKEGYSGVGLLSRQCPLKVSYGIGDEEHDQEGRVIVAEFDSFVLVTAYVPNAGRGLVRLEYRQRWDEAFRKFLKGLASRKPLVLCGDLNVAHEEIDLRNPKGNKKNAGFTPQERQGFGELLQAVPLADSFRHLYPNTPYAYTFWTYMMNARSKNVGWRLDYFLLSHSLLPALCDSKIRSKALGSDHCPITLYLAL

E. coli Endo IV = biological target: T2, E. coli Endo IV (Escherichia coli, UniProt P0A6C1); test: E. coli Endo IV profiling counterscreen; format: biochemical; conditions: read-out: EndoIV IC50;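 further: selectivity counterscreen of candidate APE1 inhibitors against the bacterial endonuclease Endo IV, run in the same assay format as the primary APE1 high-throughput screen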
T2 construct: made in house
Source text: In order to screen out nonselective compounds, such as non-specific DNA binders and inhibitors of related enzymes, we used a miniaturized ThO DNA displacement assay and a counterscreen against the bacterial endonuclease E. coli Endo IV, respectively, following the previously published protocols [21].
To probe the selectivity of the candidate APE1 inhibitors, we tested them against E. coli EndoIV [36], employing the same assay as used in the HTS.

APE1 [2] = biological target: T1, APE1; test: Gel-based APE1 incision assay with fluorescence (TAMRA) detection; format: biochemical
Experimental: To test the compounds’ inhibitory activity after the primary screen, two assays designed to monitor the cleavage of substrate to product through electrophoretic separation were utilized. The radiotracer incision assay, utilizing a ^32P-labeled substrate, was performed essentially as described [21], [31], [32]. Incision reactions utilizing ^32P-labeled substrate were carried out for 5 min at 37°C. After the addition of an equal volume of stop buffer (0.05% bromophenol blue and xylene cyanol, 20 mM EDTA, 95% formamide), the substrate and product were separated on a standard polyacrylamide denaturing gel and quantified by PhosphorImager analysis [32]. […] APE1 cleavage of the substrate results in a 18-mer TAMRA-labeled fragment which was separated by a non-denaturing polyacrylamide gel electrophoresis and quantitated in a Gel Doc XR imaging system, BioRad (Hercules, CA). The advantage of this assay is that it can be used in a relatively high throughput mode with the inhibitors tested at a range of concentrations (0.17 µM to 125 µM was used here). APE1 (0.15 nM) was added to a reaction mixture of 20 µL containing assay buffer (40 mM HEPES pH 7.5, 50 mM NaCl, 1 mM MgCl2 and 2 mM DTT), and labeled ds DNA substrate (final 75 nM). The mixture was incubated at RT for 15 min, and the reaction was stopped by the addition 20 µL of 2X dye stop solution (10% glycerol, 20 mM EDTA and bromophenol blue). Then 10 µL of the mixture was resolved on 20% polyacrylamide gel in 1X Tris-borate EDTA running buffer at 250 V for 40 min.
To eliminate false positive hits, all 595 confirmed molecules were tested for their ability to inhibit APE1 incision activity using biochemical assays that involve electrophoretic separation of the substrate and cleavage product.

[3] = biological target: double-stranded 17-mer DNA fragment; test: ThO (Thiazole Orange) DNA displacement assay; format: binding; conditions: read-out: ThO-DNA binding IC50;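 further: miniaturized displacement of the intercalating dye from unlabeled duplex DNA, used to flag nonspecific DNA binders, chiefly intercalators, groove binders may be missed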
APE1 [4] = biological target: T1, APE1; test: Fluorescence polarization (FP) displacement assay of APE1 binding to AP-DNA probe; conditions: read-out: FP IC50;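 further: TAMRA 5′-labeled duplex DNA with THF abasic site (5 nM) and APE1 (20 nM), Mg2+-free buffer, 15 min at room temperature, inhibition seen as lowered polarization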
HeLa cells = test: MMS potentiation assay (CellTiter Glo viability); format: cell-based, human; set-up: key: N.A., no activity observed; P, positive; I, inconclusive; N.T., not tested; conditions: potentiation of the genotoxic effect of methylmethane sulfonate
Experimental: HeLa cells were plated at 6000 cells/well in DMEM culture medium containing 10% FBS into white solid bottom 384-well cell culture plates. The plates were incubated at 37°C overnight for cell attachment, followed by media replacement. The fresh medium contained serial dilutions of compounds of interest in the presence (0.4 mM final) or absence of MMS. The plates were incubated for 24 h at 37°C. Cell viability was determined by luminescence detection after an addition of 15 µL of CellTiter Glo reagent (Promega, Madison, WI). Percent viability was calculated for each concentration of compound tested in duplicate by relating the corresponding luminescence to that of a negative DMSO vehicle control. MMS potentiation trends were defined as follows: negative (-), if cell viability in the compound-plus-MMS treatment was the same as that of the DMSO-plus-MMS control (overlapping dose-response curves); inconclusive (I), if the shift in the cell viability dose-response upon MMS inclusion relative to compound-alone was less than 30%; and positive (P), if the difference between the compound-plus-MMS and compound-alone curves was at least 30%, and maintained within at least a two-fold compound concentration span.
To examine the biological prospects of the top compounds, we tested their ability to inhibit APE1 DNA repair activity by assessing enhancement of MMS toxicity in mammalian cells. MMS creates methylated-base damage to genomic DNA, which, when excised by an alkylpurine DNA glycosylase, results in a high number of cytotoxic AP sites. We compared the viability of HeLa cells exposed to a dilution series of inhibitor alone to a combination of a fixed MMS concentration with the same dilution series of inhibitor by using a standard CellTiter Glo luminescence assay. This technique measures the number of viable cells in culture based on quantitation of the ATP present, which signals the presence of metabolically active cells. The assay was further optimized for 384-well plates, allowing a high-throughput testing of multiple hits at multiple concentrations, a scope of investigation previously impossible due to the very low throughput of the traditionally applied colony formation assay.
From the 223 compounds found positive in the gel-based APE1 assays, exclusion of the most promiscuous hits, that is, those that were both DNA binders and EndoIV-inhibitory, yielded a set of 170 compounds (Figure 3). This shortened group of hits was tested in the cell-based potentiation assay for their ability to dose-dependently enhance sensitivity of HeLa cells to the alkylating agent MMS.

[5] = initial quantitative high-throughput screen, read-out: APE1 qHTS IC50
[6] = retest of cherrypicked sample, read-out: APE1 Retest IC50
[7] = entries 113-223: fluorophore detection, estimated IC50, read-out: Gel-based electrophoretic separation assay with fluorophore detection, estimated IC50 (column headed Radiotracer Assay (%Activity))
[8] = estimated IC50, fluorophore detection, entries 113-223, read-out: F-PAGE Assay IC50

For CC(C)(C)OC(=O)C[C@@H]1C/C=C\C[C@@H](CC(=O)NCCO)C(=O)N[C@H](Cc2c[nH]c3ccccc23)COC1=O [MLS002320206], the IC50 (APE1 [1]; [5]) was 15 µM, the IC50 (APE1 [1]; [6]) was 16.2 µM and the IC50 (E. coli Endo IV) was over 57 µM. The IC50 (APE1 [2]; [7]) was 20 µM, the IC50 [3] was over 57 µM and the IC50 (APE1 [4]) was over 57 µM.

Nc1c(C(=O)OCC(=O)Nc2cccc([N+](=O)[O-])c2)[nH]c(=O)[nH]c1=O [MLS002171489] was tested, and the IC50 (APE1 [1]; [5]) was 8.4 µM, the IC50 (APE1 [1]; [6]) was 16.2 µM and the IC50 (E. coli Endo IV) was over 57 µM. The IC50 (APE1 [2]; [8]) was 7.9 µM, the IC50 [3] was over 57 µM and the IC50 (APE1 [4]) was over 57 µM.

With O=C(COC(=O)/C=C/c1ccco1)Nc1ncc(Cl)cc1Cl [MLS000391557] the IC50 (E. coli Endo IV) was over 57 µM, the IC50 [3] was over 57 µM and the “MMS Assay” value (HeLa cells) was “I”.

COCCN(CC(=O)Nc1cccc(C)c1C)C(=O)c1cc2c(s1)CCC2 [MLS002170765] showed an IC50 (APE1 [1]; [5]) of 15 µM, an IC50 (APE1 [1]; [6]) of 18.2 µM and an IC50 (E. coli Endo IV) of over 57 µM. The IC50 (APE1 [2]; [7]) was 17.8 µM, the IC50 [3] was over 57 µM and the IC50 (APE1 [4]) was over 57 µM.

CC1(C)CC2CC(C)(CN2C(=O)COC(=O)c2ccc(O)cc2O)C1 (stereo not drawn) [MLS002251953] was tested, and the IC50 (APE1 [1]; [5]) was 10.6 µM, the IC50 (APE1 [1]; [6]) was 14.5 µM and the IC50 (E. coli Endo IV) was over 57 µM. For the same compound, the IC50 (APE1 [2]; [7]) was 15.8 µM, the IC50 [3] was over 57 µM and the IC50 (APE1 [4]) was over 57 µM.

With CCCN(C(=O)c1cccc(-n2cccc2)c1)c1c(N)n(Cc2ccccc2)c(=O)[nH]c1=O [MLS001098232] the IC50 (APE1 [1]; [5]) was 6.7 µM, the IC50 (APE1 [1]; [6]) was 6.5 µM and the IC50 (E. coli Endo IV) was over 57 µM. For the same compound, the IC50 (APE1 [2]; [8]) was 2.8 µM, the IC50 [3] was over 57 µM and the IC50 (APE1 [4]) was 20.4 µM.

With Cc1ccc(C)c(NC(=O)CN(C)C(=O)c2cccc(-n3cccc3)c2)c1 [MLS001161412] the IC50 (APE1 [1]; [5]) was 3 µM, the IC50 (APE1 [1]; [6]) was 5.8 µM and the IC50 (E. coli Endo IV) was 16.2 µM. For the same compound, the IC50 (APE1 [2]; [8]) was 2.8 µM, the IC50 [3] was over 57 µM and the IC50 (APE1 [4]) was 12.9 µM.

O=C(COC(=O)c1ccccc1)Nc1ncc([N+](=O)[O-])s1 [MLS002171184] gave an IC50 (APE1 [1]; [5]) of 3.4 µM, an IC50 (APE1 [1]; [6]) of 11.5 µM and an IC50 (E. coli Endo IV) of over 57 µM. It also gave an IC50 (APE1 [2]; [8]) of 1.6 µM, an IC50 [3] of 32.4 µM and an IC50 (APE1 [4]) of over 57 µM.

NS(=O)(=O)c1ccc(N=Nc2ccc(=O)[nH]c2O)cc1 [MLS000738241] was tested, and the IC50 (APE1 [1]; [5]) was 7.5 µM, the IC50 (APE1 [1]; [6]) was 12.9 µM and the IC50 (E. coli Endo IV) was over 57 µM. For the same compound, the IC50 (APE1 [2]; [8]) was 3.5 µM, the IC50 [3] was over 57 µM and the IC50 (APE1 [4]) was over 57 µM.

O=C(COC(=O)Cc1cccc(C(F)(F)F)c1)NCc1ccco1 [MLS002169571] gave an IC50 (APE1 [1]; [5]) of 10.6 µM, an IC50 (APE1 [1]; [6]) of 45.7 µM and an IC50 (E. coli Endo IV) of over 57 µM. For the same compound, the IC50 (APE1 [2]; [8]) was 7.1 µM, the IC50 [3] was over 57 µM and the IC50 (APE1 [4]) was over 57 µM.

In the case of CC(C)(C)OC(=O)C[C@@H]1C/C=C\C[C@H](CC(=O)NCCO)C(=O)N2CCC[C@H]2COC1=O [MLS002320191], the IC50 (APE1 [1]; [5]) is reported as 6.7 µM, the IC50 (APE1 [1]; [6]) is reported as 20.4 µM and the IC50 (E. coli Endo IV) is reported as over 57 µM. The IC50 (APE1 [2]; [8]) was 7.9 µM, the IC50 [3] was over 57 µM and the IC50 (APE1 [4]) was over 57 µM.

Work on COc1ccc(S(=O)(=O)N2CCN(C(=O)c3cc4c(s3)CCC4)CC2)cc1 [MLS002248682] yielded an IC50 (APE1 [1]; [5]) of 2.7 µM, an IC50 (APE1 [1]; [6]) of 8.1 µM and an IC50 (E. coli Endo IV) of over 57 µM. It also gave an IC50 (APE1 [2]; [8]) of 2 µM, an IC50 [3] of over 57 µM and an IC50 (APE1 [4]) of over 57 µM.

Compound COc1ccc(NC(=O)CN(C)C(=O)c2cc3c(s2)CCC3)cc1 [MLS001081306] has an IC50 (APE1 [1]; [5]) of 1.9 µM, an IC50 (APE1 [1]; [6]) of 7.3 µM and an IC50 (E. coli Endo IV) of over 57 µM. The IC50 (APE1 [2]; [8]) was 0.1 µM, the IC50 [3] was 40.8 µM and the IC50 (APE1 [4]) was over 57 µM.

NC(=O)c1ccc(NC(=O)COC(=O)c2cc3c(s2)CCC3)cc1 [MLS002251079] showed an IC50 (APE1 [1]; [5]) of 3 µM, an IC50 (APE1 [1]; [6]) of 12.9 µM and an IC50 (E. coli Endo IV) of over 57 µM. For the same compound, the IC50 (APE1 [2]; [8]) was 3.5 µM, the IC50 [3] was over 57 µM and the IC50 (APE1 [4]) was 18.2 µM.

Work on CCOC(=O)c1ccc2[nH]c(-c3ccc(S(=O)(=O)F)cc3)cc(=O)c2c1 [MLS000737558] yielded an IC50 (APE1 [1]; [5]) of 18.9 µM, an IC50 (APE1 [1]; [6]) of 14.5 µM and an IC50 (E. coli Endo IV) of 36.3 µM. For the same compound, the IC50 (APE1 [2]; [7]) was 28.2 µM, the IC50 [3] was over 57 µM and the IC50 (APE1 [4]) was 20.4 µM.

CN(CC(=O)Nc1cccc(F)c1)C(=O)c1cccc(-n2cccc2)c1 [MLS001071694] was tested, and the IC50 (APE1 [1]; [5]) was 3.4 µM, the IC50 (APE1 [1]; [6]) was 5.1 µM and the IC50 (E. coli Endo IV) was over 57 µM. The IC50 (APE1 [2]; [8]) was 5 µM, the IC50 [3] was over 57 µM and the IC50 (APE1 [4]) was 22.9 µM.
